Counter-ions that a name gives are not always drawn. Like-named read-outs stand apart in the source and are kept apart here.
Tested on: human whole blood
Assay type: cell-based
Settings: both, 1 h
Method: In-vitro evaluation of the hemolytic influence of the preparations of this invention on human whole blood is determined as a further guide to selecting formulations with a low tendency to produce irritation around the site of injection. The hemolytic potential of a formulation on blood is evaluated by an assay of erythrocyte cytoplasmic marker enzyme, lactate dehydrogenase (LDH) which escapes from the leaky or ruptured erythrocytes into the plasma compartment of the blood. For the assay, blood is obtained from male or female Caucasian human volunteers of 18 to 65 years of age and stabilized with sodium heparin. A test formulation is mixed with an equal volume of human whole blood and incubated at 37° C. for about 1 hour. The mixture is then held at ambient temperature for 30 minutes followed by centrifugation at 1500 rpm for 10 min. The level of LDH in the supernatant is determined according to protocols known in the art. An upper limit titre is determined by measuring the LDH levels resulting from hemolysis by amiodarone hydrochloride, a compound known to result in vein irritation upon venous injection in clinical settings (PDR 1999, p. 3289). Amiodarone hydrochloride IV solution, when tested at 50 mg/mL and after dilution with 5% aqueous dextrose to 1.8 mg/mL can result in LDH values of about 8000 IU/L and about 700 IU/L, respectively.

## CCCCc1oc2ccccc2c1C(=O)c1cc(I)c(OCCN(CC)CC)c(I)c1 [Amiodarone hydrochloride, amiodarone hydrochloride]
1.8 mg/mL
  LDH values: about 700 IU/L
50 mg/mL
  LDH values: about 8000 IU/L
